Patent publication US10160771B2, “Hepatitis C virus inhibitors and uses thereof in preparation of drugs” (priority 2014, dated 2018)

How the values were obtained:
[1] = test system: HCV genotype 1a (HCV-1a) replicon cells; assay: HCV genotype 1a replicon luciferase assay (EC50); assay type: cell-based, hepatitis C virus genotype 1a (H77 clone); conditions: 3 days, luciferase (Bright-Glo)
Outline: (§1)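 H77-derived 1a (K1691R, K2040R, S2204I) or Con1-derived 1b (E1202G, T1280I, K1846T) luciferase replicon cells, 8000/well, exposed 3 days at 37° C. to 6-point 5-fold dilutions (top 100, 10 or 1 nM; 0.5% DMSO), in duplicate. Bright-Glo luminescence read; EC50 from nonlinear fit of % inhibition.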

[2] = test system: HCV genotype 1b (HCV-1b) replicon cells; assay: HCV genotype 1b replicon luciferase assay (EC50); assay type: cell-based, hepatitis C virus genotype 1b (Con1 clone); conditions: Hepatitis C virus, 72 h, 3 days, luciferase (Bright-Glo)
Outline: as §1

[3] = Cell Titer-fluor cell activity assay in HCV-1b replicon cells (CC50); assay type: cell-based
Outline: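 Con1 genotype 1b replicon cells (E1202G, T1280I, K1846T adaptive mutations), 8000 cells/well, exposed to 6-point 5-fold dilutions from 100, 10 or 1 nM top concentration in 0.5% DMSO, duplicate wells, 3 days at 37 °C. Viability read by Cell Titer-fluor (Ex 405/Em 515 nm) after 30 min; CC50 from nonlinear fit of inhibition %.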

SMILES | EC50 ([1]; Hepatitis C virus, 72 h) [nM] | EC50 [2] [nM] | CC50 at 3 days [3] [nM] | EC50 [1] [nM]
COC(=O)N[C@H](C(=O)N1CCC[C@H]1c1ncc(-c2ccc(-c3ccc(-c4cnc(C5C6CCC(C6)[C@@H]5C(=O)NCc5cccnc5SC)[nH]4)cc3)cc2)[nH]1)[C@@H](C)OC (stereo partly drawn) [AA_259_A] | 10 to 100 | 0.001 to 0.1 | > 1 | 
COC(=O)N[C@H](C(=O)N1CCC[C@H]1c1ncc(-c2ccc(-c3ccc(-c4cnc(C5C6CCC(C6)[C@H]5C(=O)NCc5cccnc5SC)[nH]4)cc3)cc2)[nH]1)[C@@H](C)OC (stereo partly drawn) [AA_260_B] | 10 to 100 | 0.001 to 0.1 | > 1 | 
COC(=O)N[C@H](C(=O)N1CCC[C@H]1c1ncc(-c2ccc(-c3ccc(-c4cnc(C5C6CCC(C6)[C@H]5C(=O)N[C@@H](C)c5ccccc5)[nH]4)cc3)cc2)[nH]1)[C@@H](C)OC (stereo partly drawn) [AA_262_B] | 0.101 to 1 | 0.001 to 0.1 | > 1 | 
COC(=O)N[C@H](C(=O)N1CCC[C@H]1c1ncc(-c2ccc(-c3ccc(-c4cnc(C5C6CCC(C6)[C@@H]5C(=O)NCc5cccnc5O)[nH]4)cc3)cc2)[nH]1)[C@@H](C)OC (stereo partly drawn) [AA_263_B] | 1 to 10 | 0.101 to 1 | > 1 | 
COC(=O)N[C@H](C(=O)N1CCC[C@H]1c1ncc(-c2ccc(-c3ccc(-c4cnc(C5C6CCC(C6)[C@H]5C(=O)NCc5cccnc5O)[nH]4)cc3)cc2)[nH]1)[C@@H](C)OC (stereo partly drawn) [AA_263_C] | 10 to 100 | 0.101 to 1 | > 1 | 
COC(=O)N[C@H](C(=O)N1CCC[C@H]1c1ncc(-c2ccc(-c3ccc(-c4cnc(C5C6CCC(C6)[C@@H]5C(=O)NCc5ccc(C(F)(F)F)nc5)[nH]4)cc3)cc2)[nH]1)[C@@H](C)OC (stereo partly drawn) [AA_264_A] | 1 to 10 | 0.101 to 1 | > 1 | 
COC(=O)N[C@H](C(=O)N1CCC[C@H]1c1ncc(-c2ccc(-c3ccc(-c4cnc(C5C6CCC(C6)[C@H]5C(=O)NCc5ccc(C(F)(F)F)nc5)[nH]4)cc3)cc2)[nH]1)[C@@H](C)OC (stereo partly drawn) [AA_264_B] | 10 to 100 | 0.101 to 1 | > 1 | 
COC(=O)N[C@H](C(=O)N1CCC[C@H]1c1ncc(-c2ccc(-c3ccc(-c4cnc(C5C6CCC(C6)[C@@H]5C(=O)NCc5ccc(C(C)C)nc5)[nH]4)cc3)cc2)[nH]1)[C@@H](C)OC (stereo partly drawn) [AA_265_A] | 10 to 100 | 0.101 to 1 | > 1 | 
COC(=O)N[C@H](C(=O)N1CCC[C@H]1c1ncc(-c2ccc(-c3ccc(-c4cnc(C5C6CCC(C6)[C@H]5C(=O)NCc5ccc(C(C)C)nc5)[nH]4)cc3)cc2)[nH]1)[C@@H](C)OC (stereo partly drawn) [AA_265_B] | 10 to 100 | 0.101 to 1 | > 1 | 
COC(=O)N[C@H](C(=O)N1CCC[C@H]1c1ncc(-c2ccc(-c3ccc(-c4cnc(C5C6CCC(C6)[C@@H]5C(=O)NCCc5ccncc5)[nH]4)cc3)cc2)[nH]1)[C@@H](C)OC (stereo partly drawn) [AA_266_A] | 1 to 10 | 0.101 to 1 | > 1 | 
COC(=O)N[C@H](C(=O)N1CCC[C@H]1c1ncc(-c2ccc(-c3ccc(-c4cnc(C5C6CCC(C6)[C@H]5C(=O)NCCc5ccncc5)[nH]4)cc3)cc2)[nH]1)[C@@H](C)OC (stereo partly drawn) [AA_266_B] | 10 to 100 | 0.101 to 1 | > 1 | 
COC(=O)N[C@H](C(=O)N1CCC[C@H]1c1ncc(-c2ccc(-c3ccc(-c4cnc(C5C6CCC(C6)[C@@H]5C(=O)N[C@H](c5cccnc5)C(C)C)[nH]4)cc3)cc2)[nH]1)[C@@H](C)OC (stereo partly drawn) [AA_267_A] | 0.101 to 1 | 0.001 to 0.1 | > 1 | 
COC(=O)N[C@H](C(=O)N1CCC[C@H]1c1ncc(-c2ccc(-c3ccc(-c4cnc(C5C6CCC(C6)[C@H]5C(=O)N[C@H](c5cccnc5)C(C)C)[nH]4)cc3)cc2)[nH]1)[C@@H](C)OC (stereo partly drawn) [AA_267_B] |  | 0.101 to 1 | > 1 | 1 to 10
COC(=O)N[C@H](C(=O)N1CCC[C@H]1c1ncc(-c2ccc(-c3ccc(-c4cnc(C5C6CCC(C6)[C@@H]5C(=O)NCc5cnccn5)[nH]4)cc3)cc2)[nH]1)[C@@H](C)OC (stereo partly drawn) [AA_268_A] | 0.101 to 1 | 0.001 to 0.1 | > 1 | 
